From paper PMC10313001, “Carboxylic acids that drive mosquito attraction to humans activate ionotropic receptors” (PLOS Neglected Tropical Diseases, 2023)

How the values were obtained:
AaegIR75k1 [1] = biological target: T1, AaegIR75k1 (Aedes aegypti, UniProt A0A6I8TFY9); experiment: two-electrode voltage clamp, Xenopus oocytes, single concentration […]; response about one quarter of nonanoic acid; type: cell-based
T1 construct: gene 5563741; with AaegIR8a
T1 sequence (A0A6I8TFY9 20-624): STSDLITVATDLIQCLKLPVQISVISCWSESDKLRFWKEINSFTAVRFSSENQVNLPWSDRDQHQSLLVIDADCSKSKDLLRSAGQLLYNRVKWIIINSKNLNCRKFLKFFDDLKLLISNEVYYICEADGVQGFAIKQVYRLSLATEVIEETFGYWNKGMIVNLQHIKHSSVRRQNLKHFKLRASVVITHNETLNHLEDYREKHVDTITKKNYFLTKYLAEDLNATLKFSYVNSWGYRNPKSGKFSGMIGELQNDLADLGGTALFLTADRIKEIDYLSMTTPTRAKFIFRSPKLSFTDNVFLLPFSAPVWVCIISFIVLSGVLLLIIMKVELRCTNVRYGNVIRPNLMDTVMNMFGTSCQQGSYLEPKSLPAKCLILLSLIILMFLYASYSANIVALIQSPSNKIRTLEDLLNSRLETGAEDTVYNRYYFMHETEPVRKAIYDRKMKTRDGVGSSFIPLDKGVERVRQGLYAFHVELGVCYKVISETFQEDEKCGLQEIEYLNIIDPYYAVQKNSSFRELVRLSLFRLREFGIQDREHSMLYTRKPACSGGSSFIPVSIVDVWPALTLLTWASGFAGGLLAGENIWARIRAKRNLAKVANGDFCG
T1 sequence (A0A1S4F362 23-913 partner): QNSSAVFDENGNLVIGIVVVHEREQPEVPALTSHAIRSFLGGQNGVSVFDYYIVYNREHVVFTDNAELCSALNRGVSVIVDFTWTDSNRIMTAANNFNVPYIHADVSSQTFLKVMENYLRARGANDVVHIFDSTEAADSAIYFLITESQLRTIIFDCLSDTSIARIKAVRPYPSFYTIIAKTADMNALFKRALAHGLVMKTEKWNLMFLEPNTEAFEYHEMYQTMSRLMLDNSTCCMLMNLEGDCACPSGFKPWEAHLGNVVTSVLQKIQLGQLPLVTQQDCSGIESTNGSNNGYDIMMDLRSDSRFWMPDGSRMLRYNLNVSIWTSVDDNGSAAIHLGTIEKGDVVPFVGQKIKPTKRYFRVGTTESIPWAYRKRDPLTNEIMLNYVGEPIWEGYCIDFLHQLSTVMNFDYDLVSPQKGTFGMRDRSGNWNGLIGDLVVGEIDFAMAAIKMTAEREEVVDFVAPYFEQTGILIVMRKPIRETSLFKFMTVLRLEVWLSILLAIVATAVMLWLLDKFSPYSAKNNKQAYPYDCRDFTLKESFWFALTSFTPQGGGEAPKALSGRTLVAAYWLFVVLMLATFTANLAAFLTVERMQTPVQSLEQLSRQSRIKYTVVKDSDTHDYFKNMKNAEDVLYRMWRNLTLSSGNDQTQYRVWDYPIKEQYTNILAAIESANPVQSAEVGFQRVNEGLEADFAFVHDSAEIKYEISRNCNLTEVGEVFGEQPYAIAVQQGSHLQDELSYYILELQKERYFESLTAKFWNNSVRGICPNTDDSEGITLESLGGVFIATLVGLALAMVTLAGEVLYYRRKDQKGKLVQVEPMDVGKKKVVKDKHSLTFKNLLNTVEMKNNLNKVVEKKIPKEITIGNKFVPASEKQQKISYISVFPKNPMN

AaegIR75k3 = biological target: T2, AaegIR75k3 (Aedes aegypti, UniProt A0A6I8U3Y9); experiment: two-electrode voltage clamp, Xenopus oocytes expressing AaegIR75k3/AaegIR8a; type: cell-based
T2 construct: gene 5563739; with AaegIR8a
T2 sequence (A0A6I8U3Y9 20-624): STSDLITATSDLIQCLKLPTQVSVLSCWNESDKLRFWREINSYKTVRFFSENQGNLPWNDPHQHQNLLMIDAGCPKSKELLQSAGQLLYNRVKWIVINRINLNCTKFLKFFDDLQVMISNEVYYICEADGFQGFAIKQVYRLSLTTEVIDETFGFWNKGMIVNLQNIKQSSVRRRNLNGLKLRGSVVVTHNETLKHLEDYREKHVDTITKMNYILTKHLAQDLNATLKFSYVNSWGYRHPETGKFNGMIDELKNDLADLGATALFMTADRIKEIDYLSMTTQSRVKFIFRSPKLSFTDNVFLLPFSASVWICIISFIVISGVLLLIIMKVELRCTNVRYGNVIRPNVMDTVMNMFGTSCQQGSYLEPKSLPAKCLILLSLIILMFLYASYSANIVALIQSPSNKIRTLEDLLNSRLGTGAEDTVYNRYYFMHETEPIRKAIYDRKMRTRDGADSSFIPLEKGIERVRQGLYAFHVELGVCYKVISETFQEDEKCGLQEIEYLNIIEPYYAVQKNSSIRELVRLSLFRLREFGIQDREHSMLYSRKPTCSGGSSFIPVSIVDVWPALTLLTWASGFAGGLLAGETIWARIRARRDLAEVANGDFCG
T2 sequence (A0A1S4F362 23-913 partner): T1 sequence (A0A1S4F362 23-913 partner)

AalbIR75e = test system: T3, AalbIR75e; experiment: two-electrode voltage clamp, Xenopus oocytes expressing AalbIR75e/AalbIR8a; type: cell-based, Aedes albopictus
T3 construct: gene Ir75e; with AalbIR8a

AaegIR75k1 [2] = biological target: T1, AaegIR75k1; experiment: two-electrode voltage clamp, Xenopus oocytes expressing AaegIR75k1/AaegIR8a; type: cell-based

Structure (SMILES) | two-electrode voltage clamp, Xenopus oocytes, single concentration 10^-4 M; resp (AaegIR75k1 [1]) | EC50 (AaegIR75k3) | EC50 (AalbIR75e) | EC50 (AaegIR75k1 [2])
CCCCCCCC(=O)O [octanoic acid] | also maximally activated by nonanoic acid, with responses four-fold greater than for octanoic acid | 25.2 µM | – | –
CCCCCCCCC(=O)O [nonanoic acid] | – | 18.1 µM | 8.64 µM | 9.94 µM
